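Grown in 96-well plates, cells were treated for 48 hours with each compound at five concentrations. Insufficient inhibition: endpoint recorded as highest concentration tested. GI50 is the concentration that inhibits growth by half. TGI: total growth inhibition.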
Experiments:
Experiment in all cases: DTP human tumour cell line panel, 48 h
ACHN renal = system: ACHN renal
CAKI-1 renal = system: CAKI-1 renal
HCT-116 colon = system: HCT-116 colon
MCF7 breast = system: MCF7 breast
NCI-H522 lung = system: NCI-H522 lung
NCI/ADR-RES ovarian = system: NCI/ADR-RES ovarian
OVCAR-3 ovarian = system: OVCAR-3 ovarian
PC-3 prostate = system: PC-3 prostate
SF-268 CNS = system: SF-268 CNS
TK-10 renal = system: TK-10 renal

C/C(=C\c1csc(C)n1)[C@@H]1C[C@@H]2O[C@]2(C)CCC[C@H](C)[C@H](O)[C@@H](C)C(=O)C(C)(C)[C@@H](O)CC(=O)N1
GI50 (ACHN renal): 0.000324 µM
TGI (ACHN renal): 0.000478 µM
GI50 (CAKI-1 renal): 0.0137 µM
TGI (CAKI-1 renal): 0.0434 µM
GI50 (HCT-116 colon): 0.0917 nM
TGI (HCT-116 colon): 0.0003 µM
GI50 (MCF7 breast): 0.0795 nM
TGI (MCF7 breast): 0.00037 µM
GI50 (NCI-H522 lung): 0.0757 nM
TGI (NCI-H522 lung): 0.00019 µM
GI50 (NCI/ADR-RES ovarian): 0.000206 µM
TGI (NCI/ADR-RES ovarian): 0.000412 µM
GI50 (OVCAR-3 ovarian): 0.000158 µM
TGI (OVCAR-3 ovarian): 0.000377 µM
GI50 (PC-3 prostate): < 0.01 nM
TGI (PC-3 prostate): < 1e-05 µM
GI50 (SF-268 CNS): 0.000215 µM
TGI (SF-268 CNS): 0.000446 µM
GI50 (TK-10 renal): 0.00534 µM
TGI (TK-10 renal): 0.0411 µM

Cc1cccc(Oc2ccc(Nc3ncnc4ccc(NC(=O)CN(C)C)cc34)cc2Cl)c1
GI50 (ACHN renal): 0.804 µM
TGI (ACHN renal): 4 µM
GI50 (CAKI-1 renal): 1.1 µM
TGI (CAKI-1 renal): 2.97 µM
GI50 (HCT-116 colon): 1610 nM
TGI (HCT-116 colon): 3.09 µM
GI50 (MCF7 breast): 1690 nM
TGI (MCF7 breast): 3.87 µM
GI50 (NCI-H522 lung): 244 nM
TGI (NCI-H522 lung): 1.98 µM
GI50 (NCI/ADR-RES ovarian): 2.83 µM
TGI (NCI/ADR-RES ovarian): 14.2 µM
GI50 (OVCAR-3 ovarian): 1.16 µM
TGI (OVCAR-3 ovarian): 3 µM
GI50 (PC-3 prostate): 2020 nM
TGI (PC-3 prostate): 6.32 µM
GI50 (SF-268 CNS): 1.47 µM
TGI (SF-268 CNS): 3.1 µM
GI50 (TK-10 renal): 1.1 µM
TGI (TK-10 renal): 3.57 µM

COc1cc(NC(=O)COc2ccccc2)c(C(N)=O)cc1OC
GI50 (ACHN renal): 8.12 µM
TGI (ACHN renal): > 100 µM
GI50 (CAKI-1 renal): 3.8 µM
TGI (CAKI-1 renal): > 100 µM
GI50 (HCT-116 colon): 620 nM
TGI (HCT-116 colon): > 100 µM
GI50 (MCF7 breast): 661 nM
TGI (MCF7 breast): > 100 µM
GI50 (NCI-H522 lung): 410 nM
TGI (NCI-H522 lung): 7.06 µM
GI50 (NCI/ADR-RES ovarian): 0.487 µM
TGI (NCI/ADR-RES ovarian): 11.7 µM
GI50 (OVCAR-3 ovarian): 0.472 µM
TGI (OVCAR-3 ovarian): 10.5 µM
GI50 (PC-3 prostate): 2230 nM
TGI (PC-3 prostate): > 100 µM
GI50 (SF-268 CNS): 6.77 µM
TGI (SF-268 CNS): 45.7 µM
GI50 (TK-10 renal): 14.4 µM
TGI (TK-10 renal): > 100 µM

O=C1C[C@@H]2OCC=C3C[N+]4([O-])CC[C@]56c7ccccc7N1[C@H]5[C@H]2[C@H]3C[C@@H]64 (some centres undefined)
GI50 (ACHN renal): > 100 µM
TGI (ACHN renal): > 100 µM
GI50 (CAKI-1 renal): > 100 µM
TGI (CAKI-1 renal): > 100 µM
GI50 (HCT-116 colon): > 100000 nM
TGI (HCT-116 colon): > 100 µM
GI50 (MCF7 breast): > 100000 nM
TGI (MCF7 breast): > 100 µM
GI50 (NCI-H522 lung): > 100000 nM
TGI (NCI-H522 lung): > 100 µM
GI50 (NCI/ADR-RES ovarian): > 100 µM
TGI (NCI/ADR-RES ovarian): > 100 µM
GI50 (OVCAR-3 ovarian): > 100 µM
TGI (OVCAR-3 ovarian): > 100 µM
GI50 (PC-3 prostate): > 100000 nM
TGI (PC-3 prostate): > 100 µM
GI50 (SF-268 CNS): > 100 µM
TGI (SF-268 CNS): > 100 µM
GI50 (TK-10 renal): > 100 µM
TGI (TK-10 renal): > 100 µM

CC[C@]12C=CCN3CC[C@@]4(c5ccc(OC)cc5N(C)[C@H]4[C@@](O)(C(=O)OC)[C@@H]1OC(=O)CCCN1CCN(CCCC(=O)O[C@@H]4[C@]5(CC)C=CCN6CC[C@@]7(c8ccc(OC)cc8N(C)[C@H]7[C@@]4(O)C(=O)OC)[C@@H]65)CC1)[C@@H]32
GI50 (ACHN renal): 0.857 µM
TGI (ACHN renal): 2.07 µM
GI50 (CAKI-1 renal): 0.436 µM
TGI (CAKI-1 renal): 1.91 µM
GI50 (HCT-116 colon): 317 nM
TGI (HCT-116 colon): 1.05 µM
GI50 (MCF7 breast): 548 nM
TGI (MCF7 breast): 1.96 µM
GI50 (NCI-H522 lung): 1780 nM
TGI (NCI-H522 lung): 3.52 µM
GI50 (NCI/ADR-RES ovarian): 1.45 µM
TGI (NCI/ADR-RES ovarian): 3.17 µM
GI50 (OVCAR-3 ovarian): 1.38 µM
TGI (OVCAR-3 ovarian): 2.82 µM
GI50 (PC-3 prostate): 350 nM
TGI (PC-3 prostate): 1.57 µM
GI50 (SF-268 CNS): 0.919 µM
TGI (SF-268 CNS): 2.38 µM
GI50 (TK-10 renal): 1.3 µM
TGI (TK-10 renal): 2.78 µM

COc1cc2c3c(n(CCCN)c(=O)c2cc1OC)-c1ccc(N)cc1C3=O
GI50 (ACHN renal): 5.9 µM
TGI (ACHN renal): 37.8 µM
GI50 (CAKI-1 renal): 30.9 µM
TGI (CAKI-1 renal): > 82.3 µM
GI50 (HCT-116 colon): 339 nM
TGI (HCT-116 colon): 1.35 µM
GI50 (MCF7 breast): 1660 nM
TGI (MCF7 breast): > 38.2 µM
GI50 (NCI-H522 lung): 780 nM
TGI (NCI-H522 lung): 16.7 µM
GI50 (NCI/ADR-RES ovarian): > 100 µM
TGI (NCI/ADR-RES ovarian): > 100 µM
GI50 (OVCAR-3 ovarian): 2.12 µM
TGI (OVCAR-3 ovarian): > 29.6 µM
GI50 (PC-3 prostate): 1190 nM
TGI (PC-3 prostate): 22.1 µM
GI50 (SF-268 CNS): 1.64 µM
TGI (SF-268 CNS): 31.6 µM
GI50 (TK-10 renal): 17.9 µM
TGI (TK-10 renal): 80.6 µM

O=C(O)CSc1cc(NS(=O)(=O)c2ccc(Br)cc2)c2ccccc2c1O
GI50 (ACHN renal): 12.8 µM
TGI (ACHN renal): 26.6 µM
GI50 (CAKI-1 renal): 14.6 µM
TGI (CAKI-1 renal): 29.4 µM
GI50 (HCT-116 colon): 5650 nM
TGI (HCT-116 colon): 16.2 µM
GI50 (MCF7 breast): 5710 nM
TGI (MCF7 breast): 19.8 µM
GI50 (NCI-H522 lung): 16200 nM
TGI (NCI-H522 lung): 33.7 µM
GI50 (NCI/ADR-RES ovarian): 3.11 µM
TGI (NCI/ADR-RES ovarian): 13.8 µM
GI50 (OVCAR-3 ovarian): 2.58 µM
TGI (OVCAR-3 ovarian): 9.09 µM
GI50 (PC-3 prostate): 5780 nM
TGI (PC-3 prostate): 43.8 µM
GI50 (SF-268 CNS): 8.18 µM
TGI (SF-268 CNS): 23.4 µM
GI50 (TK-10 renal): 20.3 µM
TGI (TK-10 renal): 34.7 µM

CN(c1ccccc1)c1c2ccccc2nc2[nH]c3ccccc3c12
GI50 (ACHN renal): 1.43 µM
TGI (ACHN renal): 3.2 µM
GI50 (CAKI-1 renal): 1.92 µM
TGI (CAKI-1 renal): 5.92 µM
GI50 (HCT-116 colon): 2890 nM
TGI (HCT-116 colon): 8.72 µM
GI50 (MCF7 breast): 769 nM
GI50 (NCI-H522 lung): 3560 nM
TGI (NCI-H522 lung): 14.9 µM
GI50 (NCI/ADR-RES ovarian): 7.79 µM
TGI (NCI/ADR-RES ovarian): > 47.8 µM
GI50 (OVCAR-3 ovarian): 2 µM
TGI (OVCAR-3 ovarian): 6.01 µM
GI50 (PC-3 prostate): 2780 nM
TGI (PC-3 prostate): 14.7 µM
GI50 (SF-268 CNS): 3.41 µM
TGI (SF-268 CNS): 15.2 µM
GI50 (TK-10 renal): 1.26 µM
TGI (TK-10 renal): 3.5 µM

OCc1ccc(N2CCc3ccc(F)cc3C2)cc1Cl
GI50 (ACHN renal): 10.4 µM
TGI (ACHN renal): 23 µM
GI50 (CAKI-1 renal): 1.01 µM
TGI (CAKI-1 renal): 9.62 µM
GI50 (HCT-116 colon): 26.7 nM
TGI (HCT-116 colon): 11.1 µM
GI50 (MCF7 breast): 137 nM
TGI (MCF7 breast): 11 µM
GI50 (NCI-H522 lung): 12600 nM
TGI (NCI-H522 lung): 26.2 µM
GI50 (NCI/ADR-RES ovarian): 5.22 µM
TGI (NCI/ADR-RES ovarian): 25.6 µM
GI50 (OVCAR-3 ovarian): 0.0605 µM
TGI (OVCAR-3 ovarian): 0.325 µM
GI50 (PC-3 prostate): 12700 nM
TGI (PC-3 prostate): 27.4 µM
GI50 (SF-268 CNS): 13.1 µM
TGI (SF-268 CNS): 27 µM
GI50 (TK-10 renal): 0.0178 µM
TGI (TK-10 renal): 0.0693 µM

Cn1cc(-c2ccc3c(c2)ncn3-c2cc(NS(=O)(=O)C3CC3)cc(-c3ccc(F)cc3F)c2)cn1
GI50 (ACHN renal): 5 µM
TGI (ACHN renal): 66.9 µM
GI50 (CAKI-1 renal): 3.77 µM
TGI (CAKI-1 renal): > 100 µM
GI50 (HCT-116 colon): 5390 nM
TGI (HCT-116 colon): 55.8 µM
GI50 (MCF7 breast): 4370 nM
TGI (MCF7 breast): 92.6 µM
GI50 (NCI-H522 lung): 10600 nM
TGI (NCI-H522 lung): 64.9 µM
GI50 (NCI/ADR-RES ovarian): 13.6 µM
TGI (NCI/ADR-RES ovarian): > 100 µM
GI50 (OVCAR-3 ovarian): 14.5 µM
TGI (OVCAR-3 ovarian): 62.3 µM
GI50 (PC-3 prostate): 5970 nM
TGI (PC-3 prostate): > 100 µM
GI50 (SF-268 CNS): 3.01 µM
TGI (SF-268 CNS): > 100 µM
GI50 (TK-10 renal): 2.73 µM
TGI (TK-10 renal): 72.7 µM

Cc1ccc(-c2nc([P+](c3ccccc3)(c3ccccc3)c3ccccc3)c(N3CCOCC3)o2)cc1
GI50 (ACHN renal): 2.32 µM
TGI (ACHN renal): 7.53 µM
GI50 (CAKI-1 renal): 5.58 µM
TGI (CAKI-1 renal): 17.1 µM
GI50 (HCT-116 colon): 356 nM
TGI (HCT-116 colon): 10.8 µM
GI50 (MCF7 breast): 316 nM
TGI (MCF7 breast): 2.18 µM
GI50 (NCI-H522 lung): 371 nM
TGI (NCI-H522 lung): 7.39 µM
GI50 (NCI/ADR-RES ovarian): 21.9 µM
TGI (NCI/ADR-RES ovarian): > 100 µM
GI50 (OVCAR-3 ovarian): 0.362 µM
TGI (OVCAR-3 ovarian): 3.69 µM
GI50 (PC-3 prostate): 315 nM
TGI (PC-3 prostate): 3.72 µM
GI50 (SF-268 CNS): 0.389 µM
TGI (SF-268 CNS): 11 µM
GI50 (TK-10 renal): 1.44 µM
TGI (TK-10 renal): 9.15 µM

Reference: PubChem BioAssay (NCI)
